Values joined by “and” are separate entries in the source; they are usually repeats but may differ in a detail not shown here. Identical values can stand only once. Toxic doses and inconclusive results are not listed.
Tested on: L1210 leukemia ip in BDF1 mice, survival T/C
Experiment: NCI In Vivo Anticancer Drug Screen. Data for tumor model L1210 Leukemia (intraperitoneal) in B6D2F1 (BDF1) mice
Conditions: endpoint: mean survival time, higher = longer survival
Procedure, shortened: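 Read-out is survival time, reported as the treated-group measurement over the vehicle-control measurement.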

[1] = dose: 400.0 mg/kg/injection, schedule: Q04DX003 (ip), vehicle: saline
[2] = dose: 100.0 mg/kg/injection, schedule: Q04DX002 (ip), vehicle: Klucel (hydroxypropylcellulose) (HPC)
[3] = dose: 200.0 mg/kg/injection, schedule: Q04DX002 (ip), vehicle: Klucel (hydroxypropylcellulose) (HPC)
[4] = dose: 100.0 mg/kg/injection, schedule: Q04DX003 (ip), vehicle: Klucel (hydroxypropylcellulose) (HPC)
[5] = dose: 200.0 mg/kg/injection, schedule: Q04DX003 (ip), vehicle: Klucel (hydroxypropylcellulose) (HPC)
[6] = dose: 100.0 mg/kg/injection, schedule: Q01DX009 (ip), vehicle: saline with Tween-80
[7] = dose: 200.0 mg/kg/injection, schedule: Q01DX009 (ip), vehicle: saline with Tween-80
[8] = dose: 100.0 mg/kg/injection, schedule: Q01DX009 (ip), vehicle: other
[9] = dose: 200.0 mg/kg/injection, schedule: Q01DX009 (ip), vehicle: other
[10] = dose: 400.0 mg/kg/injection, schedule: Q01DX009 (ip), vehicle: other
[11] = dose: 10.0 mg/kg/injection, schedule: Q01DX009 (ip), vehicle: Klucel (hydroxypropylcellulose) (HPC)
[12] = dose: 20.0 mg/kg/injection, schedule: Q01DX009 (ip), vehicle: Klucel (hydroxypropylcellulose) (HPC)
[13] = dose: 100.0 mg/kg/injection, schedule: Q04DX003 (ip), vehicle: saline
[14] = dose: 200.0 mg/kg/injection, schedule: Q04DX003 (ip), vehicle: saline
[15] = dose: 100.0 mg/kg/injection, schedule: Q01DX001 (ip), vehicle: saline
[16] = dose: 200.0 mg/kg/injection, schedule: Q01DX001 (ip), vehicle: saline
[17] = dose: 400.0 mg/kg/injection, schedule: Q01DX001 (ip), vehicle: saline

SMILES: Brc1ccc([Si](c2ccccc2)(c2ccccc2)c2ccccc2)cc1
- T/C (dose: 100.0 mg/kg/injection, schedule: Q04DX003 (ip), vehicle: saline with Tween-80): 97 % of control
- T/C (dose: 200.0 mg/kg/injection, schedule: Q04DX003 (ip), vehicle: saline with Tween-80): 92 % of control
- T/C (dose: 400.0 mg/kg/injection, schedule: Q04DX003 (ip), vehicle: saline with Tween-80): 89 % of control

SMILES: CN(O)C(N)=O
- T/C (dose: 25.0 mg/kg/injection, schedule: Q03HX024 (ip), vehicle: saline): 160 % of control
- T/C (dose: 35.0 mg/kg/injection, schedule: Q01DX009 (ip), vehicle: saline): 124 % of control
- T/C (dose: 50.0 mg/kg/injection, schedule: Q03HX024 (ip), vehicle: saline): 124 % of control
- T/C (dose: 75.0 mg/kg/injection, schedule: Q04DX003 (ip), vehicle: saline): 108 % of control
- T/C (dose: 100.0 mg/kg/injection, schedule: Q01DX009 (ip), vehicle: saline): 151 % of control
- T/C (dose: 115.0 mg/kg/injection, schedule: Q04DX003 (ip), vehicle: saline): 108 % of control
- T/C (dose: 175.0 mg/kg/injection, schedule: Q04DX003 (ip), vehicle: saline): 119 % of control
- T/C (dose: 177.0 mg/kg/injection, schedule: Q01DX009 (ip), vehicle: saline): 152 % of control and 170 % of control
- T/C (dose: 200.0 mg/kg/injection, schedule: Q01DX009 (ip), vehicle: saline): 158 % of control
- T/C (dose: 265.0 mg/kg/injection, schedule: Q04DX003 (ip), vehicle: saline): 115 % of control
- T/C (dose: 266.0 mg/kg/injection, schedule: Q01DX009 (ip), vehicle: saline): 194 % of control
- T/C (dose: 267.0 mg/kg/injection, schedule: Q01DX009 (ip), vehicle: saline): 151 % of control
- T/C [1]: 166 % of control
- T/C (dose: 500.0 mg/kg/injection, schedule: Q01DX009 (ip), vehicle: saline): 100 % of control
- T/C (dose: 800.0 mg/kg/injection, schedule: Q01DX009 (ip), vehicle: saline): 103 % of control
- T/C (dose: 900.0 mg/kg/injection, schedule: Q04DX003 (ip), vehicle: saline): 115 % of control

SMILES: Nc1nc(N)c(N)c(Nc2ccc(Cl)cc2)n1
- T/C [2]: 101 % of control
- T/C [3]: 101 % of control

SMILES: Cc1nc(N)nc2c1CCC(=O)N2
- T/C [4]: 100 % of control
- T/C [5]: 89 % of control
- T/C (dose: 400.0 mg/kg/injection, schedule: Q04DX003 (ip), vehicle: Klucel (hydroxypropylcellulose) (HPC)): 94 % of control

SMILES: c1cc[c]([Ge]([O][Ge]([c]2ccccc2)([c]2ccccc2)[c]2ccccc2)([c]2ccccc2)[c]2ccccc2)cc1
- T/C (dose: 50.0 mg/kg/injection, schedule: Q01DX009 (ip), vehicle: saline with Tween-80): 94 % of control
- T/C [6]: 96 % of control
- T/C [7]: 96 % of control

SMILES: O=C1c2ccccc2S(=O)N1OCc1ccccc1 (stereo unspecified)
- T/C [2]: 88 % of control
- T/C [3]: 100 % of control

SMILES: Cc1ccc(-c2cc(-c3ccccc3)n(-c3ccccc3)n2)cc1
- T/C [8]: 103 % of control
- T/C [9]: 96 % of control
- T/C [10]: 95 % of control

SMILES: Oc1ccccc1/C=N\N=C\c1ccccc1O
- T/C (dose: 50.0 mg/kg/injection, schedule: Q04DX002 (ip), vehicle: Klucel (hydroxypropylcellulose) (HPC)): 93 % of control
- T/C (dose: 100.0 mg/kg/injection, schedule: Q01DX001 (ip), vehicle: other): 97 % of control
- T/C [2]: 101 % of control
- T/C (dose: 200.0 mg/kg/injection, schedule: Q01DX001 (ip), vehicle: other): 103 % of control
- T/C [3]: 112 % of control
- T/C (dose: 400.0 mg/kg/injection, schedule: Q01DX001 (ip), vehicle: other): 94 % of control

SMILES: CC(C)(C)C1CCNC(=O)CC1 (stereo unspecified)
- T/C [11]: 95 % of control
- T/C [12]: 103 % of control
- T/C (dose: 20.0 mg/kg/injection, schedule: Q04DX003 (ip), vehicle: Klucel (hydroxypropylcellulose) (HPC)): 107 % of control
- T/C (dose: 40.0 mg/kg/injection, schedule: Q04DX003 (ip), vehicle: Klucel (hydroxypropylcellulose) (HPC)): 103 % of control
- T/C (dose: 75.0 mg/kg/injection, schedule: Q01DX001 (ip), vehicle: carboxymethylcellulose (CMC)): 102 % of control
- T/C (dose: 150.0 mg/kg/injection, schedule: Q01DX001 (ip), vehicle: carboxymethylcellulose (CMC)): 102 % of control
- T/C (dose: 300.0 mg/kg/injection, schedule: Q01DX001 (ip), vehicle: carboxymethylcellulose (CMC)): 96 % of control

SMILES: CN1CSCC1C(=O)O (stereo unspecified)
- T/C [13]: 94 % of control
- T/C [14]: 96 % of control

SMILES: CC(C)(C#N)C(C)(C)c1cnc2ccccc2c1
- T/C [4]: 96 % of control
- T/C [5]: 101 % of control

SMILES: O=[N+]([O-])/C=C/c1ccccc1O
- T/C (dose: 6.25 mg/kg/injection, schedule: Q04DX003 (ip), vehicle: saline): 92 % of control
- T/C (dose: 12.5 mg/kg/injection, schedule: Q04DX003 (ip), vehicle: saline): 101 % of control
- T/C (dose: 25.0 mg/kg/injection, schedule: Q04DX003 (ip), vehicle: saline): 92 % of control

SMILES: CCS(=O)CC
- T/C (dose: 100.0 mg/kg/injection, schedule: Q04DX002 (ip), vehicle: saline): 106 % of control
- T/C [13]: 101 % of control and 108 % of control
- T/C (dose: 200.0 mg/kg/injection, schedule: Q04DX002 (ip), vehicle: saline): 89 % of control
- T/C [14]: 94 % of control and 97 % of control
- T/C (dose: 400.0 mg/kg/injection, schedule: Q04DX002 (ip), vehicle: saline): 95 % of control
- T/C [1]: 101 % of control and 104 % of control

SMILES: O=C1CCC2=C3C4CCCCC4C(=O)C4CCCC(OC2C1)C34 (stereo unspecified)
- T/C (dose: 75.0 mg/kg/injection, schedule: Q01DX001 (ip), vehicle: other): 105 % of control
- T/C (dose: 150.0 mg/kg/injection, schedule: Q01DX001 (ip), vehicle: other): 94 % of control
- T/C (dose: 300.0 mg/kg/injection, schedule: Q01DX001 (ip), vehicle: other): 89 % of control

SMILES: COCC1OC(n2cc(C)c(=O)n(C)c2=O)CC1OC (stereo unspecified)
- T/C (dose: 50.0 mg/kg/injection, schedule: Q01DX005 (ip), vehicle: saline): 102 % of control
- T/C (dose: 100.0 mg/kg/injection, schedule: Q01DX005 (ip), vehicle: saline): 98 % of control
- T/C (dose: 200.0 mg/kg/injection, schedule: Q01DX005 (ip), vehicle: saline): 100 % of control

SMILES: O=C1NC(=O)c2ccc(S)c3cccc1c23
- T/C [6]: 94 % of control
- T/C [7]: 90 % of control
- T/C (dose: 400.0 mg/kg/injection, schedule: Q01DX009 (ip), vehicle: saline with Tween-80): 97 % of control

SMILES: Cc1ccc(NC(=O)Oc2ccccc2F)cc1NC(=O)Oc1ccccc1F
- T/C [8]: 102 % of control
- T/C [9]: 90 % of control
- T/C [10]: 94 % of control

SMILES: CCn1nnnc1N
- T/C [13]: 91 % of control
- T/C [14]: 94 % of control
- T/C [1]: 102 % of control

SMILES: O=C(Nc1cccc(Cl)c1Cl)Sc1ccccc1O
- T/C (dose: 100.0 mg/kg/injection, schedule: Q01DX009 (ip), vehicle: Klucel (hydroxypropylcellulose) (HPC)): 104 % of control
- T/C (dose: 200.0 mg/kg/injection, schedule: Q01DX009 (ip), vehicle: Klucel (hydroxypropylcellulose) (HPC)): 97 % of control

SMILES: CC(C)(C)c1ccc(C(=O)O)cc1.[Cu+2]
- T/C (dose: 2.5 mg/kg/injection, schedule: Q01DX009 (ip), vehicle: Klucel (hydroxypropylcellulose) (HPC)): 109 % of control
- T/C (dose: 5.0 mg/kg/injection, schedule: Q01DX009 (ip), vehicle: Klucel (hydroxypropylcellulose) (HPC)): 101 % of control
- T/C [11]: 106 % of control
- T/C [12]: 101 % of control

SMILES: O=[N+]([O-])c1cccc(OCCCOc2cccc([N+](=O)[O-])c2)c1
- T/C [15]: 103 % of control
- T/C [16]: 102 % of control
- T/C [17]: 100 % of control

SMILES: CCC1([N+](=O)[O-])COP(N)(=O)OC1 (stereo unspecified)
- T/C (dose: 5.0 mg/kg/injection, schedule: Q01DX001 (ip), vehicle: saline): 105 % of control
- T/C (dose: 10.0 mg/kg/injection, schedule: Q01DX001 (ip), vehicle: saline): 107 % of control
- T/C (dose: 20.0 mg/kg/injection, schedule: Q01DX001 (ip), vehicle: saline): 124 % of control
- T/C (dose: 40.0 mg/kg/injection, schedule: Q01DX001 (ip), vehicle: saline): 100 % of control
- T/C (dose: 80.0 mg/kg/injection, schedule: Q01DX001 (ip), vehicle: saline): 96 % of control

SMILES: CP1(=S)CCC(O)(c2ccccc2)CC1 (stereo unspecified)
- T/C (dose: 400.0 mg/kg/injection, schedule: Q04DX002 (ip), vehicle: saline with Tween-80): 88 % of control

SMILES: O=c1cc(O)cc(Cl)[nH]1
- T/C [15]: 96 % of control
- T/C [16]: 91 % of control
- T/C [17]: 96 % of control

— PubChem BioAssay AID248 (DTP/NCI, 2004)
